This note sets out measurements from ChEMBL document CHEMBL6087451, “Design, Synthesis, and Biological Evaluation of 2-Arylaminopyrimidine Derivatives as Dual Cathepsin L and JAK Inhibitors for the Treatment of Acute Lung Injury” (J Med Chem, 2025).

Calls of active or inactive are those of the source. The rule behind the calls is not given here.

Common to all, as to format: functional
Conditions in all cases: Homo sapiens, time 24.5 hrs

Assay [1] can be described thus: (§1) Anti-inflammatory activity against HBE cells assessed as inhibition of LPS-induced IL-8 level at 5 uM pretreated for 30 mins followed by LPS treatment for 24 hrs by ELISA relative to control. A general note: An ELISA detects its analyte on a solid surface through an enzyme-linked reagent.
Assay [2] in a line: (§2) Anti-inflammatory activity against HBE cells assessed as inhibition of LPS-induced IL-6 level at 5 uM pretreated for 30 mins followed by LPS treatment for 24 hrs by ELISA relative to control.
For assay [3], the system named is HBE. Described as §1.
Assay [4] relates to HBE. Described as §2.

For `Nc1cccc(Nc2nccc(Sc3ccc(Cl)cc3)n2)c1`, the inhibition (in general, the share of the control response that was lost under treatment) at 5 µM in assay [1] worked out at 56%; in assay [2] it was 54%.
On the same counts, the results for `Cn1cc(-c2ccnc(N)n2)c2ccccc21` are 38% and 37%.
In the case of `Nc1cccc(Nc2nccc(Sc3ccc(C(F)(F)F)cc3)n2)c1`, the inhibition at 5 µM worked out at 56% in assay [1] and 54% in assay [2].
For `COc1cccc(OC)c1Nc1ccnc(Nc2cccc(N)c2)n1` the same measures were 56% and 54%.
On the same counts, the results for `Nc1cccc(Nc2nccc(Nc3ccccc3)n2)c1` are 56% and 54%.
On to `Cn1cc(-c2ccnc(Nc3ccccc3)n2)c2ccccc21`, for which the inhibition result in assay [3] was “inactive”. In assay [2], the inhibition at 5 µM came out at 85%.
Take `Nc1cccc(Nc2nccc(Nc3ccc4[nH]ccc4c3)n2)c1`: the inhibition at 5 µM in assay [1] and in assay [2] was over 65% each time.
Turning to `Nc1cccc(Nc2nccc(Nc3cccc(Cl)c3)n2)c1`, the inhibition at 5 µM in assay [1] turned out to be 56%; in assay [2] it was 54%.
With `Nc1cccc(Nc2nccc(Nc3ccc(Br)cc3)n2)c1`, the inhibition at 5 µM in assay [1] was 56%; in assay [2], 54%.
For `Cn1cc(-c2ccnc(Nc3ncccn3)n2)c2ccccc21`, the inhibition at 5 µM in assay [1] came out at 12%. Besides, the inhibition entry in assay [4] is “inactive”.
On to `Cn1cc(-c2ccnc(Nc3cccc(Cl)c3)n2)c2ccccc21`, for which the inhibition at 5 µM in assay [1] worked out at 56%; in assay [2], 54%.
Consider `COc1ccc(Nc2ccnc(Nc3cccc(N)c3)n2)cc1`, for which the results for the inhibition at 5 µM in assay [1] and in assay [2] were 56% and 54%, respectively.
Regarding `Cc1ccc(Oc2nccc(-c3cn(C)c4ccccc34)n2)cc1`, the inhibition result in assay [3] and in assay [4] was “inactive” in each case.
Regarding `Nc1cccc(Nc2nccc(Oc3ccc(OC(F)(F)F)cc3)n2)c1`, the inhibition at 5 µM was determined as 56% in assay [1] and 54% in assay [2].
As to `Nc1cccc(Nc2nccc(Oc3ccc4[nH]ccc4c3)n2)c1`, the inhibition at 5 µM in assay [1] and in assay [2] was over 65% throughout.
On to `Cc1ccccc1Nc1ccnc(Nc2cccc(N)c2)n1`, for which the figures for the inhibition at 5 µM in assay [1] and in assay [2] were 56% and 54%, respectively.
Turning to `CN(c1cccc(N)c1)c1nccc(-c2cn(C)c3ccccc23)n1`, the inhibition result in assay [3] and in assay [4] was “inactive” throughout.
Take `COc1cccc(Nc2ccnc(Nc3cccc(N)c3)n2)c1OC`: the inhibition at 5 µM in assay [1] amounted to 56%; in assay [2], 54%.
`Cc1ccc(Nc2ccnc(Nc3cccc(N)c3)n2)c(C)c1`: the inhibition at 5 µM in assay [1] is 56%; in assay [2], 54%.
For `COc1cccc(Nc2ccnc(Nc3cccc(N)c3)n2)c1`, the inhibition at 5 µM came out at 56% in assay [1] and 54% in assay [2].
On the same counts, the results for `Cn1cc(-c2ccnc(Nc3ccccc3N)n2)c2ccccc21` are 69% and 61%.
As for `COc1cccc(Oc2ccnc(Nc3cccc(N)c3)n2)c1`, the values for the inhibition at 5 µM in assay [1] and in assay [2] were 56% and 54%, respectively.
Regarding `COc1ccc(OC)c(Nc2ccnc(Nc3cccc(N)c3)n2)c1`, the inhibition at 5 µM in assay [1] was 56%; in assay [2] it was 54%.
With `Cn1cc(-c2ccnc(NC3CCCCC3)n2)c2ccccc21`, the inhibition result in assay [3] and in assay [4] was “inactive” in each case.
Take `COc1ccccc1Nc1nccc(-c2cn(C)c3ccccc23)n1`: the inhibition result in assay [3] is “inactive”. The inhibition at 5 µM in assay [2] stood at 38%.
`COc1ccc(N)cc1Nc1nccc(-c2cn(C)c3ccccc23)n1`: the values for the inhibition at 5 µM in assay [1] and in assay [2] were 54% and 64%, respectively.
On to `Cn1cc(-c2ccnc(Nc3cccc(C(=O)O)c3)n2)c2ccccc21`, for which the inhibition at 5 µM was determined as 56% in assay [1] and 54% in assay [2].
`Nc1cccc(Nc2nccc(N)n2)c1`: the inhibition entry in assay [3] and in assay [4] was “inactive” throughout.
For the compound `Nc1cccc(Nc2nccc(Nc3ccc(Cl)cc3)n2)c1`, the inhibition at 5 µM turned out to be 56% in assay [1] and 54% in assay [2].
On the same counts, the results for `Cn1cc(-c2ccnc(Nc3ccc(Cl)c(N)c3)n2)c2ccccc21` are 56% and 54%.
For `Nc1cccc(Nc2nccc(Sc3ccc(F)cc3)n2)c1` the same measures were 56% and 54%.
Consider `COc1c(Br)cccc1Nc1ccnc(Nc2cccc(N)c2)n1`, for which the inhibition at 5 µM is 56% in assay [1] and 54% in assay [2].
On the same counts, the results for `Cn1nccc1Nc1nccc(-c2cn(C)c3ccccc23)n1` are 64% and 54%.
As for `Cn1cc(-c2ccnc(Nc3ccc(Cl)cc3)n2)c2ccccc21`, the inhibition at 5 µM came to 56% in assay [1] and 54% in assay [2].
Turning to `Nc1cccc(Nc2nccc(Nc3cccc(Br)c3)n2)c1`, the inhibition at 5 µM in assay [1] turned out to be 56%; in assay [2], 54%.
As for `COc1ccc(Nc2nccc(-c3cn(C)c4ccccc34)n2)cc1`, the results for the inhibition at 5 µM in assay [1] and in assay [2] were 56% and 54%, respectively.
Consider `Nc1cccc(Nc2nccc(Sc3ccc(Br)cc3)n2)c1`, for which the inhibition at 5 µM in assay [1] is 56%; in assay [2] it was 54%.
For `COc1cc(OC)cc(Oc2ccnc(Nc3cccc(N)c3)n2)c1` the same measures were 56% and 54%.
On the same counts, the results for `Cn1cc(-c2ccnc(Nc3cccc(CC(=O)O)c3)n2)c2ccccc21` are 56% and 54%.
On the same counts, the results for `Cn1cc(-c2ccnc(Nc3ccc(F)c(N)c3)n2)c2ccccc21` are 56% and 54%.
With `Nc1cccc(Nc2nccc(Nc3ccc(F)c(F)c3)n2)c1`, the inhibition at 5 µM was 56% in assay [1] and 54% in assay [2].
On to `Nc1cccc(Nc2nccc(Nc3cccc(C(F)(F)F)c3)n2)c1`, for which the values for the inhibition at 5 µM in assay [1] and in assay [2] were 56% and 54%, respectively.
`Nc1cccc(Nc2nccc(Nc3ccc(F)cc3)n2)c1`: the inhibition at 5 µM was 56% in assay [1] and 54% in assay [2].
On the same counts, the results for `Cn1cc(-c2ccnc(Nc3cccc(C#N)c3)n2)c2ccccc21` are 56% and 54%.
For `COc1ccccc1Oc1ccnc(Nc2cccc(N)c2)n1` the same measures were 56% and 54%.
For `Nc1cccc(Nc2nccc(Nc3ccc(C(F)(F)F)cc3)n2)c1`, the figures for the inhibition at 5 µM in assay [1] and in assay [2] were 56% and 54%, respectively.
On to `Cc1cccc(Nc2ccnc(Nc3cccc(N)c3)n2)c1C`, for which the inhibition at 5 µM in assay [1] was 56%; in assay [2], 54%.
On the same counts, the results for `Cn1cc(-c2ccnc(Nc3cccc(C(F)(F)F)c3)n2)c2ccccc21` are 56% and 54%.
With `Cn1cc(-c2ccnc(Nc3cccc(O)c3)n2)c2ccccc21`, the figures for the inhibition at 5 µM in assay [1] and in assay [2] were 56% and 54%, respectively.
For `Cn1cc(-c2ccnc(Nc3ccc(F)cc3)n2)c2ccccc21` the same measures were 56% and 54%.
For `Cn1cc(-c2ccnc(Nc3cccc(F)c3)n2)c2ccccc21` the same measures were 56% and 54%.
On the same counts, the results for `COc1cccc(Nc2nccc(-c3cn(C)c4ccccc34)n2)c1` are 56% and 54%.
For `COc1ccc(C)cc1Nc1ccnc(Nc2cccc(N)c2)n1`, the inhibition at 5 µM in assay [1] is 56%; in assay [2], 54%.
For `COc1ccc(Nc2ccnc(Nc3cccc(N)c3)n2)c(OC)c1` the same measures were 56% and 54%.
On the same counts, the results for `COc1ccc(Oc2ccnc(Nc3cccc(N)c3)n2)cc1OC` are 56% and 54%.
For `Cn1cc(-c2ccnc(Nc3ccc(N)cc3)n2)c2ccccc21` the same measures were 56% and 54%.
On to `COc1ccccc1Nc1ccnc(Nc2cccc(N)c2)n1`, for which the inhibition at 5 µM in assay [1] came to 56%; in assay [2] it was 54%.
On the same counts, the results for `Nc1cccc(Nc2nccc(Nc3cccc(F)c3)n2)c1` are 56% and 54%.
`Nc1ccc(Oc2ccnc(Nc3cccc(N)c3)n2)cc1`: the inhibition at 5 µM worked out at 56% in assay [1] and 54% in assay [2].
For the compound `Nc1cccc(Nc2nccc(Oc3ccccc3)n2)c1`, the inhibition at 5 µM in assay [1] was determined as 56%; in assay [2], 54%.
With `N#Cc1cccc(Nc2ccnc(Nc3cccc(N)c3)n2)c1`, the results for the inhibition at 5 µM in assay [1] and in assay [2] were 56% and 54%, respectively.
For `Cn1ccc(Nc2nccc(-c3cn(C)c4ccccc34)n2)n1` the same measures were 56% and 54%.
On the same counts, the results for `COc1ccc(Sc2ccnc(Nc3cccc(N)c3)n2)cc1` are 56% and 54%.
Turning to `Cn1cc(-c2ccnc(Nc3ccc(C(F)(F)F)cc3)n2)c2ccccc21`, the inhibition at 5 µM in assay [1] is 56%; in assay [2], 54%.
Consider `CC(C)Nc1nccc(-c2cn(C)c3ccccc23)n1`, for which the inhibition result in assay [3] and in assay [4] was “inactive” throughout.
In the case of `CC(C)(C)c1ccc(Nc2ccnc(Nc3cccc(N)c3)n2)cc1`, the results for the inhibition at 5 µM in assay [1] and in assay [2] were 56% and 54%, respectively.
On the same counts, the results for `CCOc1ccc(Nc2ccnc(Nc3cccc(N)c3)n2)cc1` are 56% and 54%.
On the same counts, the results for `Nc1cccc(Nc2nccc(Oc3cccc(N)c3)n2)c1` are 56% and 54%.
On the same counts, the results for `Cn1cc(-c2ccnc(Nc3cc(N)ccc3F)n2)c2ccccc21` are 83% and 69%.
